# From patent US11633370B2, “Use of scavengers of reactive gamma-ketoaldehydes to extend cell lifespan and healthspan” (Vanderbilt University, priority 2016, dated 2023)
# Legend:
# [1] = tested on: VC199 (SIR-2.1 deficient strain); test: F3-IsoP quantification by GC/MS, VC199; type: in vivo, C. elegans; details: any dose of SA tested, Day 15
# Excerpt: One of the major stimuli for activation of sirtuins is oxidative stress. […] Indeed, the mitochondrial antioxidant manganese superoxide dismutase (MnSOD) has been identified as one of the major protein targets that is deacetylated by sirtuin isoforms, with deacetylation enhancing the enzymatic activity of MnSOD [60]. If SA indeed preserves SIR-2.1 enzymatic function in vivo, the present inventors hypothesized that SA treatment would dose-dependently decrease biomarkers of oxidant injury in a SIR-2.1-dependent manner. To quantify oxidant injury, the present inventors measured F3-isoprostanes (F3-IsoPs). […] To further characterize SA's ability to preserve SIR-2.1 function, the present inventors assessed acetylation of MnSOD at Lys 122.
# F3-Isoprostanes were quantified from SA-treated worms a gas-chromatography-negative ion chemical ionization-mass spectrometry (GC-NICI-MS) approach. […]
# Samples were spiked with 248 pg of deuterated internal standards, [^2H4]-15-F2t-IsoP, quantified and calibrated by the method of Milne et al. and acidified to pH<3 with HCl in preparation for further Separation Phase Extraction (SPE). […]
# Eluates were dried under nitrogen and F3—IsoPs and resuspended in MeOH for separation by Thin Layer Chromatography (TLC). […] Deuterated F2-IsoP standard was measured at m/z 573. F3—IsoP was measured at m/z 567. […]
# N2 WT C. elegans = test: IsoK-lysyl-lactam protein adduct quantification by LC/MS/MS; type: in vivo; details: increasing concentrations of SA until day 15, versus vehicle control; p<0.01
# Excerpt: The mechanism by which IsoKs inactivate protein targets involves covalent adduction of the epsilon amine group on the side chains of lysine residues within target proteins (FIG. 2A). The initial product of this covalent adduction is a lactam ring structure composed of the lysyl side chain and the isoketal. SA's amine group is much more reactive toward IsoKs and preserves protein function by more rapidly forming an adduct with the IsoK, preventing the adduction of lysyl side chains. If this mechanism is operative in vivo when C. elegans are treated with SA, a dose-dependent reduction in IsoK-lysyl-lactam adducts should be observed. To test this directly, WT N2 worms were treated with vehicle or increasing concentrations of SA until day 15, then collected for IsoK-lysyl-lactam adduct quantification by liquid chromatography tandem mass spectrometry (LC/MS/MS) using a heavy isotope-labeled internal standard for quantification.
# Worms grown on FUDR containing SA-OP50-seeded NGM plates were collected at Day 15 adult stage by washing in M9 medium, followed by an ice-cold 60% w/v sucrose gradient to segregate clean bacteria-free adult worms from bacterial debris. Clean worms were transferred to Eppendorf tubes and flash-frozen in liquid nitrogen and thawed at 37° C. 3×. […] Levels of IsoK-lysyl-lactam adduct was measured as previously described. […]
compound,measurement,setting,value
"NCc1ccccc1O [SA, salicylamine]",F3-IsoP levels,[1],did not significantly decrease
same,IsoK-lysyl-lactam adduct levels,N2 WT C. elegans,"significant, dose-dependent reduction"
